According to patent publication US20210308028A1, “Compositions and Methods for Maintaining and Protecting Tissue Integrity and Barrier Function” (Colgate-Palmolive Company, priority 2020, published 2021):
Where a name gives a salt, the structure may show the parent alone.

Columns and labels:
[1] = test system: intestinal mucosal barrier; conditions: reported; cited from earlier work
[2] = test system: Mattek Epigingival tissues; assay: TER of Epigingival tissues upon sodium lauryl sulfate (SLS) challenge; type: cell-based, human
From the text: Cell junctions are intercellular pathways that selectively permit the movement of molecules through cellular layers. In terms of biological function, cell junctions form a barrier between apical and basolateral cell surfaces and are crucial in the development and function of epithelial tissues. The ion permeability of cell junctions can be measured through a voltmeter in the form of Trans Epithelial Electric Resistance (TER). Measurements are quickly determined through an electrode with little to no disturbance to the cell layers. The resistance correlates to the integrity of the tissue, and confluent tissue layers with intact cell junctions lead to higher TER readings.
Epigingival tissues were purchased from Mattek Corporation for use in the experiment. These multilayered epithelial cells imitate human gingival tissue in-vivo and can withstand high concentrations of toothpaste solutions. Once the tissues arrived in the laboratory, individual tissues were reconstituted in 1 mL of Mattek provided GIN-100 maintenance medium overnight at 37° C. and 5% CO2 before testing of samples. The medium was changed every day after treatment.
TER measurement experiment was performed comparing the neat active ingredients in solution and their effects on the physical integrity of Mattek Epigingival tissues. […]

[3] = test system: P. gingivalis collagenase; assay: Proteolytic assay: collagen DQ degradation by P. gingivalis culture supernatant; type: biochemical, Porphyromonas gingivalis; conditions: Example 6, FIGS. 35, 38, 41; over 5 hours
Experimental: To determine the effects of formulations tested on the proteinase activity of P. gingivalis, a 48-h culture was centrifuged at 10 000×g for 10 min. […] The fluorescence corresponding to collagen degradation was monitored using a Synergy 2 microplate reader, with the excitation and emission wavelengths set at 495 nm and 525 nm, respectively. Test compounds or the fluorescent substrate alone were used as controls. For the proteolytic assay, the following ratio was used: 40% P. gingivalis supernatant+40% test compounds+20% DQ collagen. […]
To determine the effects of the Dual Zinc plus Arginine aqueous solution and dentifrice on the proteinase activity of P. gingivalis, a 48-h culture was centrifuged at 10 000×g for 10 min. Assay mixtures containing equal volumes of P. gingivalis culture supernatant, the fluorescent substrate collagen DQ™ (100 μg/mL; Molecular Probes, Eugene, Oreg., USA), and the Dual Zinc […] The fluorescence corresponding to collagen degradation was monitored using a Synergy 2 microplate reader, with the excitation and emission wavelengths set at 495 nm and 525 nm, respectively. Test compounds or the fluorescent substrate alone were used as controls. Leupeptin (1 μM) was used as a positive inhibitory control.

[4] = test system: gingival keratinocyte barrier; conditions: previously reported; cited from earlier work
[5] = test system: in vitro oral mucosa model; conditions: Rybakovsky 2017; cited from earlier work
[6] = test system: intestinal epithelial barrier; conditions: Sarkar 2019; in vivo (mouse) and in vitro models; cited from earlier work
[7] = test system: B11 gingival keratinocytes treated with TNF-α; assay: TER with TNF-α challenge; type: cell-based, human; conditions: TNF-α 100 ng/ml
Experimental: Tight junction integrity was assessed by determining the trans-epithelial electrical resistance (TER). B11 gingival keratinocytes were seeded onto Costar™ Transwell™ clear polyester membrane inserts (6.5-mm diameter; 0.4-μm pore size; Corning Co., Cambridge, Mass., USA) at 3×10^5 cells per insert. The basolateral and apical compartments were filled with 0.6 mL and 0.1 mL of complete K-SFM, respectively. Following a 72-h incubation, the conditioned medium was replaced with antibiotic-free K-SFM, and the cells were incubated for a further 16 h. The TER values were measured using an Ohm/voltmeter (EVOM2; World Precision Instruments, Sarasota, Fla., USA) at 0, 4, 8, 24, 48, and 72 h. Resistance values were calculated in Ohms (Ω)/cm 2 by multiplying the resistance values by the filter surface area. Results were expressed as percentage of the basal control values measured at time 0 h (100% values) for each condition.
(§1) Assays exposed cells to either TNFα only or TNFα+test composition. TNFα is known to cause tissue damage. A stock solution of recombinant TNF-α is prepared in sterile distilled water at 100 μg/ml. Thereafter, dilutions are made in keratinocyte culture medium. First dilution is 1/1000 to obtain 100 ng/ml. TNF-α and the test compounds are added simultaneously.
Keratinocyte barrier integrity was determined by monitoring transepithelial electrical resistance (TER). Briefly, keratinocytes (3×10^5 cells per insert; 0.1 ml) were seeded in the apical compartment of Costar™ Transwell™ clear polyester membrane inserts (6.5 mm in diameter, 0.4 μm pore size; Corning Co., Cambridge, Mass., USA), while the basolateral compartment was filled with 0.6 ml of culture medium. After 72-h of incubation, the conditioned culture medium was replaced with fresh antibiotic-free K-SFM, and the cells were further incubated for 16 h prior treating the cells. Recombinant human TNF-α (100 ng/ml; AnaSpec, Fremont, USA) and the formulations (final dilutions of 1/500, 1/1000, and 1/2000 (v/v for the aqueous solution; w/v for the dentifrice) under investigation were added to the apical compartment. The TER values were monitored using an ohm/voltmeter (EVOM^2; World Precision Instruments, Sarasota, Fla., USA) after 0, 6, 24, and 48 h of incubation. The TER values in Ohms (Ω)/cm^2 were determined by multiplying the resistance values by the surface area of the membrane filter. Results are expressed as the percentage of the basal control value measured at time 0-h (100% value).

gingival keratinocytes [8] = assay: Keratinocyte proliferation (CellTracker Green CMFDA); type: cell-based, human; conditions: TNF-α 100 ng/ml
Experimental: Gingival keratinocytes were seeded into wells (20,000 cells per well) of a 96-well microplate (0.1 ml/well) and incubated overnight at 37° C. in a 5% CO2 atmosphere to allow cell adhesion. The culture medium was then removed, and the cells were treated or not with TNF-α (100 ng/ml) with or without the formulations under investigation for 72 h at 37° C. in a 5% CO2 atmosphere. Cell proliferation was measured using the fluorescent CellTracker™ Green CMFDA (5-chloromethylfluorescein diacetate) Dye according to the manufacturer's instructions (Thermo Fisher Scientific). Untreated control cells were assigned a value of 100%. Briefly, after 24 h of stimulation, the supernatant was removed and the cells were washed with PBS. […] Fluorescent keratinocytes were also visualized using an inverted Olympus FS X100 fluorescent microscope.

gingival keratinocytes [9] = assay: MTT colorimetric cell viability assay; type: cell-based, human
Experimental: The tight junction integrity of the B11 gingival keratinocytes was assessed by determining the transepithelial electrical resistance (TER). Briefly, B11 keratinocytes were seeded onto Costar™ Transwell™ clear polyester membrane inserts (6.5-mm diameter; 0.4-μm pore size; Corning Co., Cambridge, Mass., USA) at 3×10^5 cells per insert. The basolateral and apical compartments were filled with 0.6 mL and 0.1 mL of complete K-SFM, respectively, and the cultures were incubated for 3 days at 37° C. in a 5% CO2 atmosphere. The conditioned medium was then replaced with fresh antibiotic-free K-SFM. Following a further incubation (16 h), the TER values were measured using an Ohm/voltmeter (EVOM2; World Precision Instruments, Sarasota, Fla., USA) at 0, 2, 6, 24, and 48 h. Resistance values were calculated in Ohms (Ω)/cm^2 by multiplying the resistance values by the filter surface area. Results were expressed as a percentage of the basal control values measured at time 0 h (100% values) for each condition. […] The effect of these treatments on cell viability was assessed using an MTT (3-[4,5-[…]-2-yl]-2,5diphenyltetrazolim bromide) colorimetric assay, according to the manufacturer's instructions (Roche Diagnostics, Laval, QC, Canada).

[10] = test system: B11 gingival keratinocytes treated with TNF-α; assay: FITC-dextran paracellular transport with TNF-α challenge; type: cell-based, human; conditions: TNF-α 100 ng/ml, 48-h exposure
Experimental: The ability of test composition samples to enhance epithelial barrier integrity was assessed by monitoring the paracellular transport of FITC-conjugated 4.4-kDa dextran (FD-4; Sigma-Aldrich Canada Ltd.) across the keratinocyte layer. Briefly, B11 cells were cultured on Transwell filters, and FD-4 ([…] in culture medium) was added in the apical compartment in the presence of the test composition under investigation. Fluorescence in the basolateral compartment was measured at 0, 4, 8, 24, and 48 h using a Synergy 2 microplate reader (BioTek Instrument, Winooski, Vt., USA).
as §1
Gingival keratinocytes were cultured in the apical chamber of Transwell™ inserts as described above. Immediately after adding fluorescein isothiocyanate-conjugated dextran of 4.4 kDa (FD-4; 1 mg/ml in culture medium) to the apical compartment, the formulations under investigation were added in presence of recombinant TNF-α (100 ng/ml). Fluorescence in the basolateral compartment was recorded after 0, 2, 6, 24, and 48 h of incubation using a Synergy 2 microplate reader (BioTek Instruments; Winooski, Vt., USA).

N=C(N)NCCC[C@H](N)C(=O)O [Arginine, arginine]
intestinal mucosal barrier functions [1]: improve the intestinal mucosal barrier functions | effect on SLS-induced increase in tissue permeability (TER ratio) ([2]; tissues treated 3x over 3 days, then 0.5% SLS for 2 minutes, FIGS. 1-4): minimal effect

CC(=O)N[C@@H](CC(C)C)C(=O)N[C@@H](CC(C)C)C(=O)N[C@H](C=O)CCCNC(=N)N [Leupeptin, reference compound]
inhibition of P. gingivalis collagenase activity [3]: inhibited P. gingivalis collagenase activity

CCCCCCCCCCCCOS(=O)(=O)[O-].[Na+] [SLS, Sodium Lauryl Sulfate, reference compound]
tissue permeability after SLS treatment ([2]; 0.5% SLS solution for 2 minutes): increase in tissue permeability

Nc1nc(N)nc(-c2cc(Cl)ccc2Cl)n1 [irsogladine maleate]
protection of gingival keratinocyte barrier against TNF-α-induced damage [4]: reversed the TNF-α-induced disruption of the gingival epithelial barrier

[Zn] [zinc]
epithelial barrier function (transepithelial electrical resistance) [5]: improve epithelial barrier function | protection of intestinal epithelial barrier from Shigella flexneri [6]: allows protection of the intestinal epithelial barrier from damage mediated by the pathogen Shigella flexneri

TNF-α
decrease of TER by TNF-α ([7]; 6 h): 25.8% | decrease of TER by TNF-α ([7]; 24 h): 49.3% | decrease of TER by TNF-α ([7]; 48 h): 85.1% | reduction of cell proliferation by TNF-α (gingival keratinocytes [8]): 30.2% | viability of gingival keratinocytes (MTT) (gingival keratinocytes [9]): no significant loss of cell viability | increase of FD-4 transport by TNF-α [10]: 50.8%

epigallocatechin-3-gallate
protection of gingival keratinocyte barrier against TNF-α-induced damage [4]: prevented epithelial barrier disruption

theaflavins
protection of gingival keratinocyte barrier against TNF-α-induced damage [4]: prevented epithelial barrier disruption
